Assay results from ChEMBL document CHEMBL5614419, “Discovery of novel BCL6-Targeting PROTACs with effective antitumor activities against DLBCL in vitro and in vivo” (Eur J Med Chem, 2024).
The source made the active and inactive calls. The rule behind the calls is not given here.

How the values were obtained:
[1] = test system: Ibrutinib resistant DOHH2 cell; assay: Upregulation of p21 protein level in human Ibrutinib resistant DOHH2 cells at 0.1 to 10 uM incubated for 48 hrs by Western blot analysis; assay type: functional, cell-based; conditions: dose 0.1-10 µM
[2] = Toxicity in female nude nu/nu mouse model xenografted with human SU-DHL-4 cells assessed as body weight loss at 10 to 40 mg/kg, ip measured after 21 days; assay type: organism-based, SUD4; conditions: in vivo, 504 h, dose 10-40 mg/kg, time 21 day
[3] = (§1) Cytotoxicity against HEK293T cells assessed as inhibition in cell growth measured after 6 days by MTT assay; assay type: toxicity, cell-based, HEK-293T; conditions: human, HEK293T cells
HEK-293T = assay: as §1; assay type: toxicity, cell-based; conditions: human, hek-293t, 144 h; time 6 day
SUD4 [4] = assay: Induction of cell cycle arrest in human SU-DHL-4 cells assessed as accumulation of cells at G1 phase incubated for 72 hrs by flow cytometry analysis; assay type: functional, cell-based; conditions: dose 0.1-10 µM
[5] = Cmax in male Sprague-Dawley rat at 10 mg/kg, ip measured upto 24 hrs by LC-MS/MS analysis; assay type: ADME, organism-based; conditions: in vivo
SUD4 [6] = assay: Upregulation of CDKN1B mRNA level in human SU-DHL-4 cells at 10 uM incubated for 48 hrs by RT-qPCR analysis; assay type: functional, cell-based
[7] = MRT (0 to t) in male Sprague-Dawley rat at 10 mg/kg, ip measured upto 24 hrs by LC-MS/MS analysis; assay type: ADME, organism-based; conditions: in vivo
[8] = Antitumor activity against human SU-DHL-4 cells xenografted in female nude nu/nu mouse assessed as tumor growth inhibition at 40 mg/kg, ip measured after 21 days by microcaliper based analysis relative to control; assay type: functional, SUD4; conditions: SU-DHL-4, 504 h, time 21 day, read-out: TGI
[9] = molecular target: T1, Protein cereblon/B-cell lymphoma 6 protein (Homo sapiens, UniProt Q96SW2+P41182); assay: PROTAC activity at CRBN/BCL6 in BCL6-dependent human SU-DHL-4 cells assessed as induction of BCL6 degradation by measuring degradation rate at 10 uM incubated for 48 hrs by Western blot analysis relative to control; assay type: cell-based
[10] = AUC (0 to infinity) in male Sprague-Dawley rat at 20 mg/kg, po measured upto 24 hrs by LC-MS/MS analysis; assay type: ADME, organism-based; conditions: in vivo
[11] = molecular target: T1, Protein cereblon/B-cell lymphoma 6 protein; assay: PROTAC activity at CRBN/BCL6 in human DOHH-2 cells assessed as induction of BCL6 degradation incubated for 48 hrs by Western blot analysis; assay type: cell-based
[12] = Antitumor activity against human SU-DHL-4 cells xenografted in female nude nu/nu mouse assessed as tumor growth inhibition at 10 mg/kg, ip measured after 21 days by microcaliper based analysis relative to control; assay type: functional, SUD4; conditions: SU-DHL-4, 504 h, time 21 day, read-out: TGI
[13] = AUC (0 to t) in male Sprague-Dawley rat at 10 mg/kg, ip measured upto 24 hrs by LC-MS/MS analysis; assay type: ADME, organism-based; conditions: in vivo
[14] = AUC (0 to infinity) in male Sprague-Dawley rat at 10 mg/kg, ip measured upto 24 hrs by LC-MS/MS analysis; assay type: ADME, organism-based; conditions: in vivo
[15] = molecular target: T1, Protein cereblon/B-cell lymphoma 6 protein; assay: PROTAC activity at CRBN/BCL6 in human SU-DHL-4 cells assessed as reduction in half life BCL6 at 1 uM preincubated with compound for 24 hrs followed by CHX addition and measured after 4 hrs by Western blot analysis; assay type: cell-based; conditions: time 28.0 hrs
SUD4 [16] = assay: Induction of cell cycle arrest in human SU-DHL-4 cells assessed as G1 phase arrest at 500 nM in presence of Ibrutinib incubated for 72 hrs by flow cytometry; assay type: functional, cell-based
SUD4 [17] = assay: Upregulation of p21 protein level in human SU-DHL-4 cells at 5 uM by Western blot analysis; assay type: functional, cell-based; conditions: time 12-72 hrs, TDE = time-dependent effect
[18] = Resistance index, ratio of IC50 for human DOHH2/Ib cells to IC50 for DOHH2 cells; assay type: functional
[19] = molecular target: T1, Protein cereblon/B-cell lymphoma 6 protein; assay: PROTAC activity at CRBN/BCL6 in human Ibrutinib resistant DOHH2 cells assessed as induction of BCL6 degradation at 0.1 to 10 uM incubated for 48 hrs by Western blot analysis; assay type: cell-based; conditions: dose 0.1-10 µM
SUD4 [20] = assay: Synergistic antiproliferative activity against human SU-DHL-4 cells assessed as combination index measured after 6 days in presence of Ibrutinib by MTT assay; assay type: functional; conditions: time 6 day
[21] = test system: Ibrutinib resistant DOHH2 cell; assay: Upregulation of p27 protein level in human Ibrutinib resistant DOHH2 cells at 0.1 to 10 uM incubated for 48 hrs by Western blot analysis; assay type: functional, cell-based; conditions: dose 0.1-10 µM
[22] = Antitumor activity against human SU-DHL-4 cells xenografted in female nude nu/nu mouse assessed as tumor growth inhibition at 20 mg/kg, ip measured after 21 days by microcaliper based analysis relative to control; assay type: functional, SUD4; conditions: SU-DHL-4, 504 h, time 21 day, read-out: TGI
SUD4 [23] = assay: Induction of cell cycle arrest in human SU-DHL-4 cells assessed as increase in G1 phase cell population at 10 uM measured after 72 hrs by flow cytometry analysis (reference value: 61.4%); assay type: functional
[24] = molecular target: T1, Protein cereblon/B-cell lymphoma 6 protein; assay: PROTAC activity at CRBN/BCL6 in human SU-DHL-4 cells assessed as induction of BCL6 degradation by measuring reduction in protein level at 5 uM measured upto 72 hrs by Western blot analysis; assay type: cell-based
[25] = Tmax in male Sprague-Dawley rat at 10 mg/kg, ip measured upto 24 hrs by LC-MS/MS analysis; assay type: ADME, organism-based; conditions: in vivo
[26] = Tmax in male Sprague-Dawley rat at 20 mg/kg, po measured upto 24 hrs by LC-MS/MS analysis; assay type: ADME, organism-based; conditions: in vivo
SUD4 [27] = assay: Antiproliferative activity against BCL6-dependent human SU-DHL-4 cells assessed as inhibition in cell growth measured after 6 days by MTT assay; conditions: SU-DHL-4, 144 h
SUD4 [28] = assay: Antiproliferative activity against BCL6-dependent human SU-DHL-4 cells assessed as inhibition of cell growth at 10 uM measured after 6 days by MTT assay relative to control; assay type: functional; conditions: SU-DHL-4, 144 h, time 6 day
[29] = Half life in male Sprague-Dawley rat at 10 mg/kg, ip measured upto 24 hrs by LC-MS/MS analysis; assay type: ADME, organism-based; conditions: in vivo
SUD4 [30] = assay: Effect on BCL6 mRNA level in human SU-DHL-4 cells at 10 uM incubated for 48 hrs by RT-qPCR analysis; assay type: functional, cell-based
[31] = molecular target: T1, Protein cereblon/B-cell lymphoma 6 protein; assay: PROTAC activity at CRBN/BCL6 in human SU-DHL-4 cells assessed as induction of BCL6 degradation incubated for 48 hrs by Western blot analysis; assay type: cell-based
[32] = molecular target: T1, Protein cereblon/B-cell lymphoma 6 protein; assay: PROTAC activity at CRBN/BCL6 in human SU-DHL-4 cells assessed as induction of BCL6 degradation by measuring maximal efficacy incubated for 48 hrs by Western blot analysis relative to control; assay type: cell-based
[33] = molecular target: T1, Protein cereblon/B-cell lymphoma 6 protein; assay: In vivo PROTAC activity at CRBN/BCL6 in female nude nu/nu mouse model xenografted with human SU-DHL-4 cells assessed as increase in p21 protein level in tumor at 40 mg/kg, ip measured after 5 hrs of last dose by Western blot analysis; assay type: functional, organism-based; conditions: SUD4
[34] = Cmax in male Sprague-Dawley rat at 20 mg/kg, po measured upto 24 hrs by LC-MS/MS analysis; assay type: ADME, organism-based; conditions: in vivo
SUD4 [35] = assay: Induction of cell cycle arrest in human SU-DHL-4 cells assessed as increase in G1 phase cell population at 1 uM measured after 72 hrs by flow cytometry analysis (reference value: 61.4%); assay type: functional

T1 sequence (Q96SW2 whole entry, looked up, other chains not shown): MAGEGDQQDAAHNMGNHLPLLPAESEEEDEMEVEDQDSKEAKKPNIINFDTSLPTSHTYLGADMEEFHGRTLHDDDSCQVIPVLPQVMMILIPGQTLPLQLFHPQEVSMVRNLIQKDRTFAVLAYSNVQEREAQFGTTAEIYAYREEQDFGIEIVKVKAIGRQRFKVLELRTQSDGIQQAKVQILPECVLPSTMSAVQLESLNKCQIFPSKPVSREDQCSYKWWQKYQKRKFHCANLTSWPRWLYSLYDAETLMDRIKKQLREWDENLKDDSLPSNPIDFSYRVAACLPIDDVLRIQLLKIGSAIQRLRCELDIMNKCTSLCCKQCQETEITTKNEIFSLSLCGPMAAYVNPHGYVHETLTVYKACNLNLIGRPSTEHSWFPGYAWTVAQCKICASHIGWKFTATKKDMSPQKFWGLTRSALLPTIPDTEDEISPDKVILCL

## COc1cc(Nc2nc(N3CCN(CCOCCNc4cccc5c4C(=O)N(C4CCC(=O)NC4=O)C5=O)CC3)ncc2F)ccc1NC(=O)c1ccc(C2=CCCC2)s1 (stereo not drawn)
[1]
  Activity: Active
[2]
  Activity: Non-Toxic
[3]
  IC50 at 6 days: > 10 µM
HEK-293T
  Activity: Dose-Dependent Effect
SUD4 [4]
  Activity: Dose-Dependent Effect
[5]
  Cmax: 3820 ng/mL
SUD4 [6]
  Activity: Active
[7]
  MRT last at 24 h: 5.3 h
[8]
  inhibition in vivo at 40 mg/kg: 71.8%
[9]
  Activity: 94.4%
[10]
  AUC(0-inf): 2330 ng·h/mL
[11]
  Activity: Dose-Dependent Effect
  DC50: 0.558 µM
[12]
  inhibition in vivo at 10 mg/kg: 22.2%
[13]
  AUC(0-t) at 24 h: 33800 ng·h/mL
[14]
  AUC(0-inf): 33900 ng·h/mL
[15]
  Activity: Active
SUD4 [16]
  Activity: Active
SUD4 [17]
  Activity: Tde
[18]
  Ratio IC50: 31.7
[19]
  Activity: Active
SUD4 [20]
  CI: 0.5
[21]
  Activity: Active
[22]
  inhibition in vivo at 20 mg/kg: 47.4%
SUD4 [23]
  Activity: 93.3%
[24]
  Activity: Active
[25]
  Tmax: 2.67 h
[26]
  Tmax: 1 h
SUD4 [27]
  IC50: 0.399 µM
SUD4 [28]
  inhibition at 10 µM: 92.6%
[29]
  half-life: 2.59 h
SUD4 [30]
  Activity: inactive
[31]
  Activity: Dose-Dependent Effect
  DC50: 0.676 µM
[32]
  Emax: 93%
[33]
  Activity: Active
[34]
  Cmax: 703 ng/mL
SUD4 [35]
  Activity: 86.7%
